Values of other authors, collected in patent US20200338088A1, “Methods for Treating Neutrophilic Dermatoses with SYK Inhibitors” (Rush University Medical Center, priority 2018, published 2020).

System: rat collagen-induced arthritis model
Conditions: daily oral dose of 10 mg/kg (10 μg/g), after 7 days

## c1cn2cc(-c3ccc4cn[nH]c4c3)nc(Nc3ccc(N4CCOCC4)cc3)c2n1 [GS-9973, 6-(1H-indazol-6-yl)-N-(4-morpholin-4-ylphenyl)imidazo[1,2-a]pyrazin-8-amine]
  ankle inflammation: significantly inhibited ankle inflammation
